# In ChEMBL document CHEMBL1201862, “PubChem BioAssay data set” (2004):
# Counter-ions that a name gives are not always drawn. Calls of active or inactive are those of the source.
# Tests used:
# [1] = cells
# [2] = target: T1, Heat shock factor protein 1 (Mus musculus, UniProt P38532); assay: inhibition of MG132-induced HSE-luciferase signal, confirmation, cell-based, NIH3T3, luminescence, dose retest (AID 2382); type: functional;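 note: NIH3T3 fibroblasts with HSF1-driven luciferase reporter stressed by proteasome inhibitor MG132; luminescence from HSF1-driven luciferase expression after 8 hours of MG132 stress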
# T1 sequence (P38532 whole entry): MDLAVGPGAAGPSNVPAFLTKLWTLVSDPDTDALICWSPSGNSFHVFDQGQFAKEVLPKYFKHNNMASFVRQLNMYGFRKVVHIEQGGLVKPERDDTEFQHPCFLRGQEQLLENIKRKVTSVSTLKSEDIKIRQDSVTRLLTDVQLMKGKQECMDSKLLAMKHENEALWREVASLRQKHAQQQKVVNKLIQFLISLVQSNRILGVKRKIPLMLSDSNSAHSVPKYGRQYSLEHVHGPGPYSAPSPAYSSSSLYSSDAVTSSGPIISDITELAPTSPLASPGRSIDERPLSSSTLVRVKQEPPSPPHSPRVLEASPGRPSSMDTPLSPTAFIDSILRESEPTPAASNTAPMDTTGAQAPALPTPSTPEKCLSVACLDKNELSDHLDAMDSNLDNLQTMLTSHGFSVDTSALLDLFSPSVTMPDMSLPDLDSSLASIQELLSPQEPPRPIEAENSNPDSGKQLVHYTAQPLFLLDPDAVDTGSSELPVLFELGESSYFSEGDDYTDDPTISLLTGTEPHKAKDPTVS
# [3] = target: T2, Oxysterols receptor LXR-beta (Homo sapiens, UniProt P55055); type: functional, cell-based;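 note: Cell-based luminescence dose-response assay of agonist activity at LXR, run as a confirmatory counterscreen to a daf-12 agonist screen; HEK293 cells with Gal4-LXR fusion and GAL4-driven luciferase reporter; agonist potency from rising luciferase signal of a Gal4-LXR reporter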
# T2 sequence (P55055 whole entry): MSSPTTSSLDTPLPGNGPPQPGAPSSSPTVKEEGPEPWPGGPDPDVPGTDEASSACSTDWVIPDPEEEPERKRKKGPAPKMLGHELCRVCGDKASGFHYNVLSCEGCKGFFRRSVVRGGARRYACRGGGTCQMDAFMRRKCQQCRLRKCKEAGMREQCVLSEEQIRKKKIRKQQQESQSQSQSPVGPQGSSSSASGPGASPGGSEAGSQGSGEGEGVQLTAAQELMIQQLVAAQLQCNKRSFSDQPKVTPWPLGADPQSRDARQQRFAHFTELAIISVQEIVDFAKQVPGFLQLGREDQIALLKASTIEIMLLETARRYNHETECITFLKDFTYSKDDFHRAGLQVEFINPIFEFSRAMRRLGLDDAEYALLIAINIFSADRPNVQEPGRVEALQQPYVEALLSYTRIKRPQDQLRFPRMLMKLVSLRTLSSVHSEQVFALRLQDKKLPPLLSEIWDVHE
# [4] = P. falciparum Dd2 growth inhibitors, dose response, SYBR Green, cherry-picked samples (AID 1159567); type: functional, cell-based
# [5] = HepG2 cell cytotoxicity, dose response, cytotoxicity control, cherry-picked samples (AID 1159577); type: functional, cell-based
# [6] = target: Voltage-gated inwardly rectifying potassium channel KCNH2 (Homo sapiens, UniProt Q12809); details: Potency;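 note: confirmatory quantitative high-throughput screen measuring inhibition of hERG channel activity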
# [7] = target: T3, Nuclear receptor subfamily 0 group B member 1 (Homo sapiens, UniProt P51843); type: functional, cell-based;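 note: HEK293T cells transfected with SF-1 and DAX-1 plus StAR promoter luciferase reporter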
# T3 sequence (P51843 whole entry): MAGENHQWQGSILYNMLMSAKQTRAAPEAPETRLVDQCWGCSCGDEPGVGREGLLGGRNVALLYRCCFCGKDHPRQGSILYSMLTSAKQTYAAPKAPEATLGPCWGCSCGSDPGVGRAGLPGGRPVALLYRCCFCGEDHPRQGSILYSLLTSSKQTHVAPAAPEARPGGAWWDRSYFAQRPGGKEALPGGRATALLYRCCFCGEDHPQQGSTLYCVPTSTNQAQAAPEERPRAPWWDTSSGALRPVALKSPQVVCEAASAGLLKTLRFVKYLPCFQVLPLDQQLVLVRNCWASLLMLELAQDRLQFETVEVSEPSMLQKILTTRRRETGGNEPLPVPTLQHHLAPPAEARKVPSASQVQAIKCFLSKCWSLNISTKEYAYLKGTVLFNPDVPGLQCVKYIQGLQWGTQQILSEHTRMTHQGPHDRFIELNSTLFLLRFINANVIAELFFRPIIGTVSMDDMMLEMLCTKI
# [8] = target: 5-hydroxytryptamine receptor 2A (Mus musculus, UniProt P35363); type: functional, cell-based;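 note: CHO-K1 cells with tagged receptor and beta-arrestin; agonist potency measured as compound-induced activation of the receptor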
# [9] = cells; type: functional, cell-based
# [10] = target: DNA dC->dU-editing enzyme APOBEC-3G (Homo sapiens, UniProt Q9HC16); assay: Dose Response confirmation of small molecule APOBEC3G DNA Deaminase Inhibitors via a fluorescence-based single-stranded DNA deaminase assay. [Related pubchem assays (depositor defined):AID493012, AID493028]; type: functional
# [11] = target: DNA dC->dU-editing enzyme APOBEC-3A (Homo sapiens, UniProt P31941); assay: APOBEC3A DNA deaminase inhibitors, dose response, biochemical (AID 504722); type: functional
# [12] = NIH-3T3 fibroblast cytotoxicity, dose response, cytotoxicity control, cell-based, fluorescence, Alamar Blue, secondary assay (AID 2327); type: functional;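 note: NIH-3T3 mouse fibroblasts cultured with fluconazole at 8 µg/mL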
# [13] = C. albicans growth with fluconazole, confirmation, fluorescence, retest (AID 2467); type: functional, cell-based
# [14] = tested on: HEK293; assay: NOD1 signaling inhibitors, primary screen, cell-based, luminescence, uHTS (AID 1578); type: functional; details: Homo sapiens
# [15] = tested on: HEK293; assay: cells; type: functional, cell-based; details: Homo sapiens
# [16] = tested on: HEK293; assay: cells; type: functional, cell-based; details: Homo sapiens; remark: listed apart in the source
# [17] = tested on: HEK293; assay: NOD2 signaling inhibitors in MDP-stimulated cells, cell-based, uHTS, luminescence (AID 2001); type: functional; details: Homo sapiens
# [18] = target: T4, Type-1 angiotensin II receptor (Homo sapiens, UniProt P30556); assay: AT1 receptor antagonists, dose response, selectivity assay for APJ receptor antagonist project, cell-based, uHTS hits (AID 463214); type: functional;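 note: antagonist potency against angiotensin II stimulated AT1 response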
# T4 sequence (P30556 whole entry): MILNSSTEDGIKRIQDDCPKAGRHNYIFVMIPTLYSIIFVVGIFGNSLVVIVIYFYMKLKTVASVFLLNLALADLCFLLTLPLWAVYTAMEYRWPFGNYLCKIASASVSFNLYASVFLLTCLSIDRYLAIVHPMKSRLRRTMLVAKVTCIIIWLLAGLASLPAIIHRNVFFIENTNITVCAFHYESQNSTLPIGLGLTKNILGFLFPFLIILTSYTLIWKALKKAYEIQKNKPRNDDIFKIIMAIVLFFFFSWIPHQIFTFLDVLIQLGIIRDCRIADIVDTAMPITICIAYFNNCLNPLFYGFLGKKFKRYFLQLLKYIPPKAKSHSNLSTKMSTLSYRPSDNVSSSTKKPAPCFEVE
# [19] = target: Beta-galactosidase (Escherichia coli, UniProt Q8VNN2); assay: PubChem AID 485352; type: functional
# Beta-galactosidase, sequence (Q8VNN2 whole entry): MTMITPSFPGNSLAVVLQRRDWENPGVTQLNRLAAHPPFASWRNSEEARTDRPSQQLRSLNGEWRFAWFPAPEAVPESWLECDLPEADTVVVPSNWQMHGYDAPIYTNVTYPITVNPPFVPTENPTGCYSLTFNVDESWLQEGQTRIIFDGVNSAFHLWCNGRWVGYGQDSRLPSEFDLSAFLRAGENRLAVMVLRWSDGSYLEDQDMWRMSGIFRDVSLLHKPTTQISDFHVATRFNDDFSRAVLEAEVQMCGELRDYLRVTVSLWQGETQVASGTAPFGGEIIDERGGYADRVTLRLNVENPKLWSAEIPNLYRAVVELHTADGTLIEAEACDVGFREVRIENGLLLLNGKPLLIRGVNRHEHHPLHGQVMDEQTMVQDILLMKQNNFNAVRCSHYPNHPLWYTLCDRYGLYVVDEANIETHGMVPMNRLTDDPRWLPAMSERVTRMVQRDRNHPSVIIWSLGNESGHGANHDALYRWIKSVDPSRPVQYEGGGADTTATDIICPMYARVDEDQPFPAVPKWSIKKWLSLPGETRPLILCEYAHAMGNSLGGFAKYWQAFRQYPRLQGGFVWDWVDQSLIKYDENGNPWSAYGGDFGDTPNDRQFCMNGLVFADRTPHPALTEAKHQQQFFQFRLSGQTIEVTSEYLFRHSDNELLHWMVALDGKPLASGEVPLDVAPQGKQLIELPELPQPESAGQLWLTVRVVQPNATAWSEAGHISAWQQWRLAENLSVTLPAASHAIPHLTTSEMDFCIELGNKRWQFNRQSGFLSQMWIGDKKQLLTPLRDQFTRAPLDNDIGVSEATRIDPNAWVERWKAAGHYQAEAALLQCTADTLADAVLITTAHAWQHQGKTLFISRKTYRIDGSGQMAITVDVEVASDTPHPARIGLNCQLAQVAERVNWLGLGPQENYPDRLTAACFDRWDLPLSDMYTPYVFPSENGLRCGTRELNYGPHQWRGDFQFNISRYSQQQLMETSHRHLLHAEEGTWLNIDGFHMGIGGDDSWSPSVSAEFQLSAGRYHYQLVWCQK
# Voltage-gated inwardly rectifying potassium channel KCNH2, sequence (Q12809 whole entry): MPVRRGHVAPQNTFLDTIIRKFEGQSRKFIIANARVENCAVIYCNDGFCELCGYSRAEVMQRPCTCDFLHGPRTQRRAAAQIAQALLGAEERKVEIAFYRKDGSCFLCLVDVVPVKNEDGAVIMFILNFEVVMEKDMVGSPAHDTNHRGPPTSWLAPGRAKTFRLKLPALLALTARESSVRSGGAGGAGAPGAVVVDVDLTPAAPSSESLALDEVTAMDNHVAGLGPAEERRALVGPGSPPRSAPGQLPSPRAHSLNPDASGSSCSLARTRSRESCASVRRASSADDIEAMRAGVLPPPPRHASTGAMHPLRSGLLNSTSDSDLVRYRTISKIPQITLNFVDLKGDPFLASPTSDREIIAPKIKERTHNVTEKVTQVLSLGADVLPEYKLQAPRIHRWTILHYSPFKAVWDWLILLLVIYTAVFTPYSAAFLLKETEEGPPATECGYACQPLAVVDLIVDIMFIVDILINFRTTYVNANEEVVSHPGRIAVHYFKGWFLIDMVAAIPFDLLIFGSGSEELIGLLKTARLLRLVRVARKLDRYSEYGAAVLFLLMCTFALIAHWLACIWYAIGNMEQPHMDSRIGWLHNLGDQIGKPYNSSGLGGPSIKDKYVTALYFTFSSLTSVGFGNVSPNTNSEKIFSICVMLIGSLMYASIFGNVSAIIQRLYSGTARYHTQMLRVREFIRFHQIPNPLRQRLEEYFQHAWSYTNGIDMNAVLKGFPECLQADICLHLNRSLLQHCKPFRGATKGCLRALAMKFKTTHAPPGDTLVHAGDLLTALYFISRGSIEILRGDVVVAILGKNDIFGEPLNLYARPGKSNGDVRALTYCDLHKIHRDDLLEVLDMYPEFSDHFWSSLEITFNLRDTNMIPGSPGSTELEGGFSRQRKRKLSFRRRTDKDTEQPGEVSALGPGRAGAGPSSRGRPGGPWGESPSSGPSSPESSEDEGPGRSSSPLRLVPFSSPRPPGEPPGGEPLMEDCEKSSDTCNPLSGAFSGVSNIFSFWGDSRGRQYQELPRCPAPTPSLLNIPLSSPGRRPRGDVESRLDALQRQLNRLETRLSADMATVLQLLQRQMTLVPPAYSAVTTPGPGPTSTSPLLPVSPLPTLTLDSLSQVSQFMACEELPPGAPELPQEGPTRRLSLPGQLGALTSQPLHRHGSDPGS
# 5-hydroxytryptamine receptor 2A, sequence (P35363 whole entry): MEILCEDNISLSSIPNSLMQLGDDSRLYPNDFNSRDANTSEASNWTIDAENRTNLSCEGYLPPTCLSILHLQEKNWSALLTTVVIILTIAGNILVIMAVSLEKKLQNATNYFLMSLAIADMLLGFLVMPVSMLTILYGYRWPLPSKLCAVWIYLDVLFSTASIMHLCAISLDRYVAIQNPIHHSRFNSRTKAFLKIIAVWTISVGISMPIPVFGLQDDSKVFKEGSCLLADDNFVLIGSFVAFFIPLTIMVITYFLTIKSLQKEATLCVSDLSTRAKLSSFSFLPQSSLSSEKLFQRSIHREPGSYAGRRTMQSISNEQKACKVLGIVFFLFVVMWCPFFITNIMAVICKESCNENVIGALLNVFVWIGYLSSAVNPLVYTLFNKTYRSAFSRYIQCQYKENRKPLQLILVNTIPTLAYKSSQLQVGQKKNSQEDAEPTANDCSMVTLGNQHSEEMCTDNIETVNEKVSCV
# DNA dC->dU-editing enzyme APOBEC-3G, sequence (Q9HC16 whole entry): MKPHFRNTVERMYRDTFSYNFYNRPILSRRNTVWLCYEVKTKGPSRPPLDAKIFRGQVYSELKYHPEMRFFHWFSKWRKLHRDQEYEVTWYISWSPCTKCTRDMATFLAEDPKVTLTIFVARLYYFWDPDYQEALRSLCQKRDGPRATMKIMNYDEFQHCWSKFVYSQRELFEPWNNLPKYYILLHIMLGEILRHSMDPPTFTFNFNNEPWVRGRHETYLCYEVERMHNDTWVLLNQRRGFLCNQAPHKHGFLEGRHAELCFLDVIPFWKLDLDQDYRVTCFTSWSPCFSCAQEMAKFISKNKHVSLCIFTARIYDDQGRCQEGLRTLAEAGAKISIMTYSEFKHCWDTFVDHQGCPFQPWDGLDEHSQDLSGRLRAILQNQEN
# DNA dC->dU-editing enzyme APOBEC-3A, sequence (P31941 whole entry): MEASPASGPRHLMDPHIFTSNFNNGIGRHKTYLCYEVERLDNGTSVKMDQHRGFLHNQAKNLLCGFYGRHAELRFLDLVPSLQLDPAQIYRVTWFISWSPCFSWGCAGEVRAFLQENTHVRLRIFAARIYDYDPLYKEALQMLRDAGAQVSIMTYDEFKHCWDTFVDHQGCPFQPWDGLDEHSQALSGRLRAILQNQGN
structure (smiles),measurement,setting,value
Cc1ccc2[nH]c(-c3sc4nc(C)cc(C)c4c3N)nc2c1,EC50,[1],> 67.5 µM (inactive)
same,EC50,[2],21 µM (active)
same,EC50,[3],> 67.5 µM (inactive)
COc1cccc(-c2cccc(-c3nc(C(=O)Nc4ccc(-c5ccccc5)cc4)cc4c3[C@@H](CCO)N([S+]([O-])C(C)(C)C)C4)c2)c1 (stereo not given in full),AC50,[4],2.71 µM (active)
same,AC50,[5],15.2 µM (active)
C=CCOC(=O)CCCCCCCC,AC50,[6],79.4 µM (inconclusive)
CNCC(O)c1ccc(O)c(O)c1 (stereo not given) [RACEPINEPHRINE HYDROCHLORIDE],AC50,[6],12.6 µM (inconclusive)
same,IC50,[7],> 67.6 µM (inactive)
same,EC50,[8],1.39 µM (active)
same,IC50,[9],> 67.6 µM (inactive)
Cc1cc(-c2nnc(S)n2CC(C)C)cs1,IC50,[10],5.87 µM (active)
same,IC50,[11],> 100 µM (inactive)
COc1ccc(-c2csc(-c3ccccc3)n2)c(OC)c1,EC50,[12],> 160 µM (inactive)
same,EC50,[13],6.64 µM (active)
same,EC50,[1],> 67.5 µM (inactive)
same,EC50,[3],> 67.5 µM (inactive)
Nc1ccc(S(=O)(=O)Nc2nccc(/C=C/c3cccc(Br)c3)n2)cc1,EC50,[14],8.24 µM (active)
same,IC50,[15],12.8 µM (active)
same,IC50,[16],> 20 µM (inactive)
same,IC50,[17],7.62 µM (active)
CC1=NC(Nc2nc(C)c3ccccc3n2)=NC(C)(C)C1,IC50,[18],13 µM (active)
same,EC50,[19],> 40 µM (inactive)
C[C@@H]1CN([C@@H](C)CO)C(=O)c2cc(NC(=O)Nc3ccc(C(F)(F)F)cc3)ccc2O[C@H]1CN(C)CC1CCCCC1,AC50,[4],10.6 µM (active)
same,AC50,[5],22 µM (active)
CN1C(=O)CCC1c1cccnc1 (stereo not given),AC50,[6],3.16 µM (inconclusive)
